Data taken from ChEMBL document CHEMBL1155363, “4,4-Disubstituted cyclohexylamine based CCR5 chemokine receptor antagonists as anti-HIV-1 agents” (Bioorg Med Chem Lett, 2009).

These molecules were tested on Human immunodeficiency virus 1 (assay: Antiviral activity against HIV1 Ba-L infected in HOS cells assessed as inhibition of viral infection). Details: Human immunodeficiency virus 1, Ba-L.
Assay type: functional, organism-based

| Structure (SMILES) | IC50 [µM] |
| --- | --- |
| Cc1ccc(S(N)(=O)=O)c(C)c1C(=O)N[C@H]1CC[C@@](CCN2[C@@H]3CC[C@H]2C[C@@H](n2c(C)nc4ccccc42)C3)(c2ccccc2)CC1 | 2.55 |
| Cc1nc2ccccc2n1[C@H]1C[C@H]2CC[C@@H](C1)N2CC[C@]1(c2ccccc2)CC[C@@H](NC(=O)c2ccc(Cl)c(S(N)(=O)=O)c2)CC1 | 1.63 |
| Cc1ccc(S(N)(=O)=O)c(C)c1C(=O)N[C@H]1CC[C@](CCN2[C@@H]3CC[C@H]2C[C@@H](n2c(C)nc4ccccc42)C3)(c2ccccc2)CC1 | 1.07 |
| Cc1nc2ccccc2n1[C@H]1C[C@H]2CC[C@@H](C1)N2CC[C@]1(c2ccccc2)CC[C@H](NC(=O)c2ccc(F)c(S(N)(=O)=O)c2)CC1 | 0.48 |
| CNS(=O)(=O)c1cc(Cl)c(C(=O)N[C@H]2CC[C@](CCN3[C@@H]4CC[C@H]3C[C@@H](n3c(C)nc5ccccc53)C4)(c3ccccc3)CC2)cc1F | 0.51 |
| Cc1nc2ccccc2n1[C@H]1C[C@H]2CC[C@@H](C1)N2CC[C@]1(c2ccccc2)CC[C@H](NC(=O)c2cc(S(=O)(=O)NC(C)C)c(Cl)cc2F)CC1 | 0.59 |
| CNS(=O)(=O)c1cc(C(=O)N[C@H]2CC[C@@H](CN3[C@@H]4CC[C@H]3C[C@@H](n3c(C)nc5ccccc53)C4)CC2)c(Cl)cc1F | > 20 |
| Cc1nc2ccccc2n1[C@H]1C[C@H]2CC[C@@H](C1)N2CC[C@]1(c2ccccc2)CC[C@H](NC(=O)c2cc(NS(C)(=O)=O)c(Cl)cc2F)CC1 | 1.48 |
| Cc1nc2ccccc2n1[C@H]1C[C@H]2CC[C@@H](C1)N2CCC[C@]1(c2ccccc2)CC[C@H](NC(=O)c2ccc(Cl)c(S(N)(=O)=O)c2)CC1 | 0.38 |
| Cc1ccnc(C)c1C(=O)N[C@H]1CC[C@](CCCN2[C@@H]3CC[C@H]2C[C@@H](n2c(C)nc4ccccc42)C3)(c2ccccc2)CC1 | 2.19 |
| Cc1nc2ccccc2n1[C@H]1C[C@H]2CC[C@@H](C1)N2C[C@H]1CC[C@@H](NC(=O)c2ccc(Cl)c(S(N)(=O)=O)c2)CC1 | > 20 |
| Cc1nc2ccccc2n1[C@H]1C[C@H]2CC[C@@H](C1)N2[C@]1(C)CC[C@H](NC(=O)c2ccc(Cl)c(S(N)(=O)=O)c2)CC1 | 0.87 |
| Cc1nc2ccccc2n1[C@H]1C[C@H]2CC[C@@H](C1)N2[C@]1(C)CC[C@H](NC(=O)c2c(Cl)ccc(S(N)(=O)=O)c2Cl)CC1 | 20 |
| Cc1nc2ccccc2n1[C@H]1C[C@H]2CC[C@@H](C1)N2CC[C@]1(c2ccccc2)CC[C@H](NC(=O)c2ccc(Cl)c(S(N)(=O)=O)c2)CC1 | 0.058 |
| Cc1nc2ccccc2n1[C@H]1C[C@H]2CC[C@@H](C1)N2CC[C@]1(c2ccccc2)CC[C@H](NC(=O)c2ccc(S(N)(=O)=O)cc2Cl)CC1 | 0.23 |
| Cc1nc2ccccc2n1[C@H]1C[C@H]2CC[C@@H](C1)N2CC[C@]1(c2ccccc2)CC[C@H](NC(=O)c2ccc(S(N)(=O)=O)cc2F)CC1 | 1.8 |
